This note sets out measurements from patent publication US20260028354A1, “TETRAHYDRONAPHTHALENE DERIVATIVES AS ESTROGEN RECEPTOR DEGRADERS” (REGENT OF THE UNIVERSITY OF MICHIGAN, priority 2022, published 2026).

Each structure is given as a SMILES string. pIC50: −log10 of the molar value. Like-named read-outs stand apart in the source and are kept apart here. A value given as a limit tells only on which side of the number the result lay.

For one experiment, the target named is CRBN/DDB1 (Homo sapiens (Human), UniProt Q96SW2). The format is binding. As to conditions: His tagged CRBN+DDB1, Cy5-labeled Thalidomide probe, one hour; read-out: CRBN HTRF IC50. The method, then: The binding potency was determined using HTRF assay technology (Perkin Elmer). Compounds were serially diluted in DMSO and […] volume was transferred to white 384-well plate.
(In general: TR-FRET usually uses a lanthanide donor and a delayed reading to cut background.)

A further experiment deals with ER in MCF-7 cells (Homo sapiens (Human), UniProt P03372). The experiment in a line: In-cell Western (ICW) ER degradation assay in MCF-7 cells. The format is cell-based. As to conditions: for DC50: MCF-7, ER degradation, read-out: MCF7 DC50.
The target of another experiment is ER (Homo sapiens (Human), UniProt P03372). Kind of experiment: In-cell western blot analysis of ER for "B" compounds. The experiment is classed as cell-based. The settings on record: 16 hours, read-out: ICW DC50. An outline of the steps:
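In-cell western: fixed cells stained with primary antibodies (2 h, RT), then anti-rabbit-680 and anti-mouse-800 secondaries (1:1000, 1 h, RT), imaged on a LI-COR plate reader. Relative ER level in treated wells expressed against untreated and DMSO-treated wells set as 100%.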

Experiment [1] in a line: Cell growth assay (WST-8) for "B" compounds. The format is cell-based. The settings on record: T47D, read-out: Cell growth Inhibition in T47D cell line IC50. An outline of the steps:
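Cells seeded at 1500/well overnight, then exposed to compounds for 4 days. 10% WST-8 added for 2.5 h at 37 °C and absorbance read at 450 nm. Growth given as absorbance relative to vehicle control, from three repeats.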

Setting [2] is: MCF7, MCF-7, maximal ER degradation, 16 hrs treatment, read-out: MCF7 Dmax.
The mark [3] stands for this setting: MCF7, read-out: MCF7 Dmax, MCF-7, maximal ER degradation, 16 hrs treatment.

By pIC50 is commonly meant the IC50 on a negative log10 scale, so that one unit is a factor of ten. As usually defined, the Dmax is the greatest extent of degradation seen.

CRBN/DDB1, sequence (Q96SW2 whole entry, species assumed): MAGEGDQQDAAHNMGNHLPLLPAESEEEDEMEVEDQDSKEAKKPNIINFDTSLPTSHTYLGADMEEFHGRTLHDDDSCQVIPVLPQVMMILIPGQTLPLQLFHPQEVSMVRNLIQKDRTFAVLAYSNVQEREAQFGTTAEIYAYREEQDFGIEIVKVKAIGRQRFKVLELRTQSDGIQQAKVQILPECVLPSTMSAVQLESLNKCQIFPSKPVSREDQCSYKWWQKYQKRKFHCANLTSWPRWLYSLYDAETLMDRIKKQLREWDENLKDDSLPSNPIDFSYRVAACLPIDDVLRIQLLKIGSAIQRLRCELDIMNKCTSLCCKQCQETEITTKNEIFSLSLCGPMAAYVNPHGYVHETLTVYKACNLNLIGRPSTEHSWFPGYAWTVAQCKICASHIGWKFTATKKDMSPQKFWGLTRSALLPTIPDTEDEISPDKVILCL
CRBN/DDB1, sequence (Q16531 whole entry partner, species assumed): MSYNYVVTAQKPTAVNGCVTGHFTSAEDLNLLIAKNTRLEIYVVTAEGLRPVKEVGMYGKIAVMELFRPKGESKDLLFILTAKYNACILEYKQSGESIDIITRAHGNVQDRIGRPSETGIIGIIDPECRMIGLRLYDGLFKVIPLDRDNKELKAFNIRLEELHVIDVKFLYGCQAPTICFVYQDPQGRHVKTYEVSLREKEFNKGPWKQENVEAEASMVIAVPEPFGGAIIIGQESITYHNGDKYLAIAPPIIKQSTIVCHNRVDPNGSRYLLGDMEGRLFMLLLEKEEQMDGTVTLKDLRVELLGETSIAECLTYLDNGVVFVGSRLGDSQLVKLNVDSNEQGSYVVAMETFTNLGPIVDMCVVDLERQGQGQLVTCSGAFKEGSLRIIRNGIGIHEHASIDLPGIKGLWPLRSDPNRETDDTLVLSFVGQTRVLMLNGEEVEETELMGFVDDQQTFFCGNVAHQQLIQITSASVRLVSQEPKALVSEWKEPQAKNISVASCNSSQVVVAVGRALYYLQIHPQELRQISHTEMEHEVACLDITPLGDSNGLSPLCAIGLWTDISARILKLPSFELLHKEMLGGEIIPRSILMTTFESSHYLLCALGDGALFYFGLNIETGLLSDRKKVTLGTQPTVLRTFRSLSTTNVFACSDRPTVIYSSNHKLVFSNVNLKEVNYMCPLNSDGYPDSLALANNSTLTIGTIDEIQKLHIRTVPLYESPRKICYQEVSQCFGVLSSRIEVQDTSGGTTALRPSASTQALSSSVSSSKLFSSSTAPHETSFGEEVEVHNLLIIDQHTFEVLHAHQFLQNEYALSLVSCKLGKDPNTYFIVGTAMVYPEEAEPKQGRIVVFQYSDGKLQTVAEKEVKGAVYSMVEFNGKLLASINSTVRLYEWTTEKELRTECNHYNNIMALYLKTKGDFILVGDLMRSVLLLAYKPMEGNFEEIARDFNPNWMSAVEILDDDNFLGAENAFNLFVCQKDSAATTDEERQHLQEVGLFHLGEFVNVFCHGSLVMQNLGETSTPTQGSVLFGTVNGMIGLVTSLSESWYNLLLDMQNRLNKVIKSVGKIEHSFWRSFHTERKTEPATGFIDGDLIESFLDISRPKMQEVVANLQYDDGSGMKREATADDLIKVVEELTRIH
ER in MCF-7 cells, sequence (P03372 whole entry): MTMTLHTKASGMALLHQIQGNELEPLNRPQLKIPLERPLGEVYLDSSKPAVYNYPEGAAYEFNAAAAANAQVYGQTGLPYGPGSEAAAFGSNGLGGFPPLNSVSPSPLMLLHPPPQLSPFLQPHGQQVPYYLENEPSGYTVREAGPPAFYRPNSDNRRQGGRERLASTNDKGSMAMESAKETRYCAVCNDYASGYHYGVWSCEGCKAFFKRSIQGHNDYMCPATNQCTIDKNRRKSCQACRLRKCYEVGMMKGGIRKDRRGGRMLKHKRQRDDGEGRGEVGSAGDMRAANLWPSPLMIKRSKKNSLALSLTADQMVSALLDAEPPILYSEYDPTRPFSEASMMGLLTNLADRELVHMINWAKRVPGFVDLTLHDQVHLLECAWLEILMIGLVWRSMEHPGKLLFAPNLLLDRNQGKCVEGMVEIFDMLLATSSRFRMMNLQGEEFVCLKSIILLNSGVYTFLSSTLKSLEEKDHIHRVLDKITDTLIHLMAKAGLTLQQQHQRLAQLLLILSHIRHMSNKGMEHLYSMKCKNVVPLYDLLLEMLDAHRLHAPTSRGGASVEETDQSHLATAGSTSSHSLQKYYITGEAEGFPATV
ER, sequence (P03372 whole entry): as above

Regarding `O=C1CC[C@H](N2Cc3c(ccc4c3OC[C@H]3CN(CCCOC5CN(c6ccc([C@@H]7c8ccc(O)cc8CC[C@@H]7c7ccccc7)cc6)C5)CCN43)C2=O)C(=O)N1` [Compound A78, (S)-3-((R)-7-(3-((1-(4-((1R,2S)-6-hydroxy-2-phenyl-1,2,3,4-tetrahydronaphthalen-1-yl)-phenyl)azetidin-3-yl)oxy)prop-yl)-1-oxo-1,3,5,5a,6,7,8,9-octa-hydro-2H-pyrazino[1′,2′:4,5] [1,4]oxazino[2,3-e]isoindol-2-yl)piperidine-2,6-dione], the negative logarithm of the IC50 (pIC50) on CRBN/DDB1 is above 7.30. Further, the greatest degradation seen (Dmax) at ER in MCF-7 cells (setting [2]) was 50 to 75%. The DC50 at ER in MCF-7 cells (16 hrs treatment) was below 1 nM.
On to `O=C1CC[C@H](N2Cc3cc4c(cc3C2=O)OC[C@@H]2CN(CC3CC5(CCN(c6ccc([C@@H]7c8ccc(O)cc8CC[C@@H]7c7ccccc7)cc6F)CC5)C3)CCN42)C(=O)N1` (single isomer, unassigned) [Compound A150], for which the pIC50 at CRBN/DDB1 was 5.30 to 6.30. Besides, the Dmax at ER in MCF-7 cells (setting [2]) was in the range of 50 to 75%. Also, on ER in MCF-7 cells (16 hrs treatment), the DC50 was 10 to 100 nM.
As for `O=C1CC[C@H](N2Cc3cc4c(cc3C2=O)OC[C@@H]2CN(CC3CCC5(CC3)CN(c3ccc([C@@H]6c7ccc(O)cc7CC[C@@H]6c6ccccc6)cc3)C5)CCN42)C(=O)N1` (single isomer, unassigned) [Compound A63], the pIC50 at CRBN/DDB1 is 5.30 to 6.30.
Regarding `O=C1CC[C@H](N2Cc3c(ccc4c3OCC43CCN(C4CN(CCOc5ccc([C@@H]6c7ccc(O)cc7CC[C@@H]6c6ccccc6)cc5)C4)CC3)C2=O)C(=O)N1` [Compound A80, (S)-3-(1′-(1-(2-(4-((1R,2S)-6-hydroxy-2-phenyl-1,2,3,4-tetrahydronaphthalen-1-yl)-phenoxy)ethyl)azetidin-3-yl)-6-oxo-6,8-dihydro-2H,7H-spiro[furo[2,3-c]isoindolc-3,4′-piperidin]-7-yl)piperidine-2,6-dione], at CRBN/DDB1, the pIC50 is above 7.30. For the same compound, the Dmax at ER in MCF-7 cells (setting [3]) is 50 to 75%. At ER in MCF-7 cells (16 hrs treatment), the DC50 was below 1 nM.
Taken in the same sequence, the figures for `O=C1CC[C@H](N2Cc3c(ccc4c3OCC43CCN(C[C@@H]4COC5(C4)CN(c4ccc([C@@H]6c7ccc(O)cc7CC[C@@H]6c6ccccc6)cc4)C5)CC3)C2=O)C(=O)N1` [Compound A75, (S)-3-(1′-(((R)-2-(4-((1R,2S)-6-hydroxy-2-phenyl-1,2,3,4-tetrahydronaphthalen-1-yl)phenyl)-5-oxa-2-azaspiro[3,4]octan-7-yl)methyl)-6-oxo-6,8-dihydro-2H,7H-spiro[furo[2,3-e]isoindole-3,4′-piperidin]-7-yl)piperidine-2,6-dione] were above 7.30, 50 to 75% and below 1 nM.
With `O=C1CCC(N2Cc3cc4c(cc3C2=O)OC[C@@H]2CN(CC3CCC5(CCN(c6ccc([C@@H]7c8ccc(O)cc8CC[C@@H]7c7ccccc7)cc6)CC5)OC3)CCN42)C(=O)N1` (stereo partly drawn) [Compound B332, 3-((4aS)-3-((9-(4-((1R,2S)-6-hydroxy-2-phenyl-1,2,3,4-tetrahydronaphthalen-1-yl)phenyl)-1-oxa-9-azaspiro[5.5]undecan-3-yl)methyl)-8-oxo-1,2,3,4,4a,5,8,10-octahydro-9H-pyrazino[1′,2′:4,5][1,4]oxazino[2,3-f]isoindol-9-yl)piperidine-2,6-dione], the DC50 at ER was below 10 nM. The pIC50 in experiment [1] (T47D cell line) is 8.00 to 9.00.
Taken in the same sequence, the figures for `O=C1CCC(N2Cc3cc4c(cc3C2=O)OC[C@@H]2CN(CC(=O)N3CCN(c5ccc([C@@H]6c7ccc(O)cc7CC[C@@H]6c6ccccc6)cc5)CC3)CCN42)C(=O)N1` (stereo partly drawn) [Compound B145, 3-((S)-3-(2-(4-(4-((1R,2S)-6-hydroxy-2-phenyl-1,2,3,4-tetrahydronaphthalen-1-yl)phenyl)piperazin-1-yl)-2-oxoethyl)-8-oxo-1,2,3,4,4a,5,8,10-octahydro-9H-pyrazino[1′,2′:4,5][1,4]oxazino[2,3-f]isoindol-9-yl)piperidine-2,6-dione] were 10 to 100 nM and above 9.00.
As to `CN1C[C@@H]2CN(CC3COC4(CCN(c5ccc([C@@H]6c7ccc(O)cc7CC[C@@H]6c6ccccc6)cc5)CC4)C3)CCN2c2cc3c(cc21)C(=O)N(C1CCC(=O)NC1=O)C3` (stereo partly drawn) [Compound B234, 3-((4aS)-3-((8-(4-((1R,2S)-6-hydroxy-2-phenyl-1,2,3,4-tetrahydronaphthalen-1-yl)phenyl)-1-oxa-8-azaspiro[4.5]decan-3-yl)methyl)-6-methyl-8-oxo-2,3,4,4a,5,6,8,10-octahydropyrazino[1,2-a]pyrrolo[3,4-g]quinoxalin-9(1H)-yl)piperidine-2,6-dione], the DC50 on ER was above 100 nM. Besides, the pIC50 in experiment [1] (T47D cell line) is above 9.00.
Take `O=C1CCC(N2Cc3cc4c(cc3C2=O)OC[C@@H]2CN(CC(=O)N3CC5(CCN(c6ccc([C@@H]7c8ccc(O)cc8CC[C@@H]7c7ccccc7)cc6)C5)C3)CCN42)C(=O)N1` (stereo partly drawn) [Compound B209, 3-((S)-3-(2-(6-(4-((1R,2S)-6-hydroxy-2-phenyl-1,2,3,4-tetrahydronaphthalen-1-yl)phenyl)-2,6-diazaspiro[3.4]octan-2-yl)-2-oxoethyl)-8-oxo-1,2,3,4,4a,5,8,10-octahydro-9H-pyrazino[1′,2′:4,5][1,4]oxazino[2,3-f]isoindol-9-yl)piperidine-2,6-dione]: the DC50 at ER is below 10 nM. For the same compound, in experiment [1] (T47D cell line), the pIC50 was above 9.00.
As to `O=C1CCC(N2Cc3c(ccc4c3OCC43CCN(CC4COC5(CN(c6ccc([C@@H]7c8ccc(O)cc8CC[C@@H]7c7ccccc7)cc6)C5)OC4)CC3)C2=O)C(=O)N1` (stereo partly drawn) [Compound B346, 3-(1′-((2-(4-((1R,2S)-6-hydroxy-2-phenyl-1,2,3,4-tetrahydronaphthalen-1-yl)phenyl)-5,9-dioxa-2-azaspiro[3.5]nonan-7-yl)methyl)-6-oxo-6,8-dihydro-2H,7H-spiro[furo[2,3-e]isoindole-3,4′-piperidin]-7-yl)piperidine-2,6-dione], the DC50 on ER fell in the range of 10 to 100 nM. In experiment [1], the pIC50 was 8.00 to 9.00.
As for `O=C1CCC(N2Cc3c(ccc4c3OCC43CCN(CC(=O)OC4CCN(c5ccc([C@@H]6c7ccc(O)cc7CC[C@@H]6c6ccccc6)cc5)CC4)CC3)C2=O)C(=O)N1` (stereo partly drawn) [Compound B343, 1-(4-((1R,2S)-6-hydroxy-2-phenyl-1,2,3,4-tetrahydronaphthalen-1-yl)phenyl)piperidin-4-yl 2-(7-((S)-2,6-dioxopiperidin-3-yl)-6-oxo-7,8-dihydro-2H,6H-spiro[furo[2,3-c]isoindolc-3,4′-piperidin]-1′-yl)acetate], the DC50 on ER is above 100 nM. Further, the pIC50 in experiment [1] was 8.00 to 9.00.
`O=C1CCC(N2Cc3c(ccc4c3OC[C@H]3CN(CC(=O)N5CC(Oc6ccc([C@@H]7c8ccc(O)cc8CC[C@@H]7c7ccccc7)cc6)C5)CCN43)C2=O)C(=O)N1` (some centres unmarked) [Compound B246]: on ER, the DC50 is below 10 nM. Also, the pIC50 in experiment [1] (T47D cell line) was above 9.00.
Taken in the same sequence, the figures for `O=C1CC[C@H](N2Cc3cc4c(cc3C2=O)OC[C@@H]2CN(CC3COC5(CCN(c6ccc([C@@H]7c8ccc(O)cc8CC[C@@H]7c7ccccc7)cc6)CC5)C3)CCN42)C(=O)N1` (stereo partly drawn) [Compound B227, (3S)-3-((4aS)-3-((8-(4-((1R,2S)-6-hydroxy-2-phenyl-1,2,3,4-tetrahydronaphthalen-1-yl)phenyl)-1-oxa-8-azaspiro[4.5]decan-3-yl)methyl)-8-oxo-1,2,3,4,4a,5,8,10-octahydro-9H-pyrazino[1′,2′: 4,5][1,4]oxazino[2,3-f]isoindol-9-yl)piperidine-2,6-dione] were below 10 nM and above 9.00.
